The values that follow are results of earlier work, collected in patent US20120100040A1, “COMPOSITION FOR S[…]” (Bakteriefritt AS, priority 2009, published 2012).

For the data set the following is noted: rat, orally.

The LD50 is the dose at which mortality reaches 50%. With `CS(C)(=O)=O` [dimethylsulfone], the LD50 is greater than 5000 mg/kg.
